Laboratory results: patent US20200261391A1, “METHODS OF REDUCING THE RISK OF A CARDIOVASCULAR EVENT IN A STATIN-TREATED SUBJECT BY INCREASING SERUM AND PLASMA EPA AND DPA LEVELS” (Amarin Pharmaceuticals Ireland Limited, priority 2019, published 2020)

What was measured:
[1] = test system: patients with elevated triglyceride levels on statin therapy; assay: REDUCE-IT endpoints by EPA blood level tertile in the icosapent ethyl group compared to placebo; type: in vivo, human
Method: To assess the relationship between on-treatment hsCRP and the primary and key secondary endpoints, subgroup analyses were carried out as done for the ITT population for patients grouped according to values greater or equal to or less than […] at baseline and at 2 years. To assess the relationship between on-treatment serum EPA and the primary and key secondary endpoints, Kaplan-Meier (KM) curves were produced for AMR101 treated patients grouped into tertiles based on their values at year 1 and were compared with the placebo-treated patients.
This is a study aimed towards determining a relative risk reduction (RRR) between subjects stratified by EPA tertiles in the REDUCE-IT clinical trial described above in Example 1. Samples were obtained from those subjects and total EPA and AA levels in human serum and plasma samples were determined according at least to the methods described in Example 7.
The objective of this study is to assess the effects of administering icosapent ethyl at 4 g per day to patients from the REDUCE-IT trial of Example 1. More specifically, patients from the REDUCE-IT trial of Example 1 were stratified by their EPA levels into one of three tertiles. Following stratification, the objective was to determine if the RRR differs between patients having EPA levels in the three different tertiles. For the data collected as shown in Tables 38-43 and FIGS. 52, 53, and 56-59, the tertiles were established based on data collected from subjects at 1 year, 2 years, and last visit following icosapent ethyl administration compared to placebo. Data are presented as an average of 1 year, 2 year, […], and end of study values. The data was further analyzed use both pooled and unpooled statistically methods.

[2] = test system: patients with elevated triglyceride levels on statin therapy; assay: REDUCE-IT endpoints by EPA/AA ratio tertile in the icosapent ethyl group compared to placebo; type: in vivo, human; conditions: EPA/AA ≤0.373068; on-treatment average of year 1, year 2, last visit
[3] = EPA >189 μg/mL, on-treatment average of year 1, year 2, last visit
[4] = EPA >114.7 to ≤189 μg/mL, on-treatment average of year 1, year 2, last visit
[5] = EPA ≤114.7 μg/mL, on-treatment average of year 1, year 2, last visit

CC/C=C\C/C=C\C/C=C\C/C=C\C/C=C\CCCC(=O)OCC [icosapent ethyl, eicosapentaenoic acid ethyl ester]
key secondary endpoint HR, highest EPA tertile vs. placebo ([1]; EPA >189 μg/mL): 0.65
primary endpoint HR, highest EPA tertile vs. placebo ([1]; EPA >189 μg/mL): 0.65
HR (95% CI), Key Secondary Endpoint, Highest EPA tertile vs Placebo [1, 3]: 0.65 (0.54, 0.80)
HR (95% CI), Primary Endpoint, Highest EPA tertile vs Placebo [1, 3]: 0.65 (0.55, 0.76)
key secondary endpoint HR, middle EPA tertile vs. placebo ([1]; EPA >114.7 to ≤189 μg/mL): 0.65
primary endpoint HR, middle EPA tertile vs. placebo ([1]; EPA >114.7 to ≤189 μg/mL): 0.72
HR (95% CI), Key Secondary Endpoint, Middle EPA tertile vs Placebo [1, 4]: 0.65 (0.53, 0.79)
HR (95% CI), Primary Endpoint, Middle EPA tertile vs Placebo [1, 4]: 0.72 (0.62, 0.85)
key secondary endpoint HR, lowest EPA tertile vs. placebo ([1]; EPA blood level ≤114.7 μg/mL): 0.89
primary endpoint HR, lowest EPA tertile vs. placebo ([1]; EPA blood level ≤114.7 μg/mL): 0.84
HR (95% CI), Key Secondary Endpoint, Lowest EPA tertile vs Placebo [1, 5]: 0.89 (0.74, 1.07)
HR (95% CI), Primary Endpoint, Lowest EPA tertile vs Placebo [1, 5]: 0.84 (0.72, 0.98)
primary composite endpoint HR, highest EPA tertile vs. placebo ([1]; FIG. 53, ITT, EPA >190.55 μg/mL): 0.63
primary composite endpoint HR, middle EPA tertile vs. placebo ([1]; FIG. 53, ITT, EPA >116.9 to ≤190.55 μg/mL): 0.74
primary composite endpoint HR, lowest EPA tertile vs. placebo ([1]; FIG. 53, ITT, EPA ≤116.9 μg/mL): 0.85
HR (95% CI), Primary Endpoint, Lowest EPA/AA ratio tertile vs Placebo [2]: 0.83 (0.71, 0.97)
